Toxic doses and inconclusive results are not listed. The calls were made as follows: active = survival T/C of 150% or more; inactive = T/C below 125% in these data.
Tested on: P388 leukemia ip, CD2F1 mice, survival T/C
Assay: NCI In Vivo Anticancer Drug Screen. Data for tumor model P388 Leukemia (intraperitoneal) in CD2F1 (CDF1) mice
Conditions: endpoint: median survival time, higher = longer survival
Outline: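 Mice carrying the transplanted tumor received test compound or vehicle. Survival was recorded in each group, and the value is the treated-group measurement divided by that of the vehicle-treated control group.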

[1] = dose: 12.5 mg/kg/injection, schedule: Q01DX009 (ip), vehicle: saline
[2] = dose: 60.0 mg/kg/injection, schedule: Q01DX005 (ip), vehicle: saline with Tween-80
[3] = dose: 120.0 mg/kg/injection, schedule: Q01DX005 (ip), vehicle: saline with Tween-80
[4] = dose: 240.0 mg/kg/injection, schedule: Q01DX005 (ip), vehicle: saline with Tween-80
[5] = dose: 50.0 mg/kg/injection, schedule: Q01DX005 (ip), vehicle: saline with Tween-80
[6] = dose: 100.0 mg/kg/injection, schedule: Q01DX005 (ip), vehicle: saline with Tween-80
[7] = dose: 200.0 mg/kg/injection, schedule: Q01DX005 (ip), vehicle: saline with Tween-80
[8] = dose: 50.0 mg/kg/injection, schedule: Q01DX009 (ip), vehicle: suspension in saline
[9] = dose: 100.0 mg/kg/injection, schedule: Q01DX009 (ip), vehicle: suspension in saline
[10] = dose: 200.0 mg/kg/injection, schedule: Q01DX009 (ip), vehicle: suspension in saline
[11] = dose: 100.0 mg/kg/injection, schedule: Q04DX003 (ip), vehicle: saline
[12] = dose: 50.0 mg/kg/injection, schedule: Q01DX009 (ip), vehicle: saline
[13] = dose: 100.0 mg/kg/injection, schedule: Q01DX009 (ip), vehicle: saline
[14] = dose: 200.0 mg/kg/injection, schedule: Q01DX009 (ip), vehicle: saline
[15] = dose: 50.0 mg/kg/injection, schedule: Q01DX009 (ip), vehicle: Klucel (hydroxypropylcellulose) (HPC)
[16] = dose: 100.0 mg/kg/injection, schedule: Q01DX009 (ip), vehicle: Klucel (hydroxypropylcellulose) (HPC)
[17] = dose: 25.0 mg/kg/injection, schedule: Q01DX009 (ip), vehicle: saline with Tween-80
[18] = dose: 50.0 mg/kg/injection, schedule: Q01DX009 (ip), vehicle: saline with Tween-80
[19] = dose: 100.0 mg/kg/injection, schedule: Q01DX009 (ip), vehicle: saline with Tween-80
[20] = dose: 25.0 mg/kg/injection, schedule: Q01DX009 (ip), vehicle: saline

Measured: T/C

C=CCC12C=C(OC)C(=O)C=C1OC(c1ccc3c(c1)OCO3)C2C (configuration not stated)
inactive: dose: 16.25 mg/kg/injection, schedule: Q01DX005 (ip), vehicle: Klucel (hydroxypropylcellulose) (HPC) 104 % of control | dose: 32.5 mg/kg/injection, schedule: Q01DX005 (ip), vehicle: Klucel (hydroxypropylcellulose) (HPC) 104 % of control | dose: 65.0 mg/kg/injection, schedule: Q01DX005 (ip), vehicle: Klucel (hydroxypropylcellulose) (HPC) 94 % of control | dose: 130.0 mg/kg/injection, schedule: Q01DX005 (ip), vehicle: Klucel (hydroxypropylcellulose) (HPC) 94 % of control

COc1cc2c(c3c1c(=O)c1cccnc1n3C)C=CC(C)(C)O2
inactive: dose: 50.0 mg/kg/injection, schedule: Q01DX005 (ip), vehicle: Klucel (hydroxypropylcellulose) (HPC) 101 % of control | dose: 100.0 mg/kg/injection, schedule: Q01DX005 (ip), vehicle: Klucel (hydroxypropylcellulose) (HPC) 101 % of control | dose: 200.0 mg/kg/injection, schedule: Q01DX005 (ip), vehicle: Klucel (hydroxypropylcellulose) (HPC) 91 % of control

CCCCCCCCC[N+]1(CC)CCCCC1
inactive: dose: 3.12 mg/kg/injection, schedule: Q01DX009 (ip), vehicle: saline 121 % of control | dose: 6.25 mg/kg/injection, schedule: Q01DX009 (ip), vehicle: saline 121 % of control | [1] 86 % of control

COc1cccc(C2SCC(=O)N2c2nncs2)c1[N+](=O)[O-] (configuration not stated)
inactive: [2] 110 % of control | [3] 100 % of control | [4] 91 % of control

COc1cc2c(cc1OC)C(C)N(C)c1c-2c(OC(C)=O)cc2cc(OC)c(OC)cc12 (configuration not stated)
inactive: [5] 97 % of control | [6] 100 % of control | [7] 92 % of control

Cc1ccc2nc(CN(CCN(Cc3nc4ccc(C)cc4[nH]3)Cc3nc4ccc(C)cc4[nH]3)Cc3nc4ccc(C)cc4[nH]3)[nH]c2c1
inactive: dose: 0.38 mg/kg/injection, schedule: Q01DX005 (ip), vehicle: saline with Tween-80 94 % of control | dose: 0.75 mg/kg/injection, schedule: Q01DX005 (ip), vehicle: saline with Tween-80 97 % of control | dose: 1.5 mg/kg/injection, schedule: Q01DX005 (ip), vehicle: saline with Tween-80 109 % of control | dose: 3.0 mg/kg/injection, schedule: Q01DX005 (ip), vehicle: saline with Tween-80 106 % of control | dose: 3.12 mg/kg/injection, schedule: Q01DX005 (ip), vehicle: saline with Tween-80 113 % of control

COc1ccc2nc(C)c(C(=O)O)c(C(=O)O)c2c1
inactive: [8] 99 % of control | [9] 103 % of control | [10] 108 % of control

CC(C(=O)NC(=O)O)S(=O)(=O)O (configuration not stated)
inactive: dose: 12.5 mg/kg/injection, schedule: Q01DX001 (ip), vehicle: saline with Tween-80 101 % of control | dose: 25.0 mg/kg/injection, schedule: Q01DX001 (ip), vehicle: saline with Tween-80 103 % of control

CC(=O)Nc1ccc(S(=O)(=O)N/N=C/c2cc([N+](=O)[O-])cc([N+](=O)[O-])c2O)cc1
inactive: [2] 106 % of control | [3] 104 % of control | [4] 104 % of control

CNC(=S)N/N=C(C)\C=N/Nc1cccc(Cl)c1
inactive: [11] 92 % of control | dose: 200.0 mg/kg/injection, schedule: Q04DX003 (ip), vehicle: saline 93 % of control | dose: 400.0 mg/kg/injection, schedule: Q04DX003 (ip), vehicle: saline 100 % of control

CCCCCCCCCCCC1=C(O)C(=O)C(Br)=C(O)C1=O
inactive: [5] 92 % of control | [6] 92 % of control

CCCC(=O)OCc1ccc(Cl)c(Cl)c1
inactive: dose: 25.0 mg/kg/injection, schedule: Q04DX003 (ip), vehicle: saline 100 % of control | dose: 50.0 mg/kg/injection, schedule: Q04DX003 (ip), vehicle: saline 104 % of control | [11] 100 % of control

CCNCC(O)c1ccc(F)cc1 (configuration not stated)
inactive: [12] 101 % of control | [13] 96 % of control | [14] 91 % of control

CCOC(=O)CC(=O)CC(C(=O)OCC)C(=O)OCC
inactive: [5] 98 % of control | [6] 104 % of control | [7] 105 % of control

COc1c2occc2c(N=Cc2ccncc2)c2ccc(=O)oc12
inactive: dose: 100.0 mg/kg/injection, schedule: Q01DX001 (ip), vehicle: saline with Tween-80 88 % of control | dose: 200.0 mg/kg/injection, schedule: Q01DX001 (ip), vehicle: saline with Tween-80 90 % of control | dose: 400.0 mg/kg/injection, schedule: Q01DX001 (ip), vehicle: saline with Tween-80 96 % of control

CC(C)N1CC(CCO)C(c2ccccc2)(c2ccccc2)C1 (configuration not stated)
inactive: [15] 99 % of control | [16] 97 % of control | dose: 200.0 mg/kg/injection, schedule: Q01DX009 (ip), vehicle: Klucel (hydroxypropylcellulose) (HPC) 106 % of control

O=C1/C(=C/N2CCN(c3ccccc3)CC2)Cc2c(Cl)cccc21
inactive: dose: 100.0 mg/kg/injection, schedule: Q04DX002 (ip), vehicle: Klucel (hydroxypropylcellulose) (HPC) 105 % of control | dose: 200.0 mg/kg/injection, schedule: Q04DX002 (ip), vehicle: Klucel (hydroxypropylcellulose) (HPC) 114 % of control | dose: 400.0 mg/kg/injection, schedule: Q04DX002 (ip), vehicle: Klucel (hydroxypropylcellulose) (HPC) 102 % of control

CC(=O)Nc1ccc(C(/C=N\NC(N)=S)=N/NC(N)=S)cc1
inactive: [17] 99 % of control | [18] 97 % of control | [19] 105 % of control

Fc1ccc(C(Nc2nncs2)Nc2nncs2)c(F)c1
inactive: [2] 105 % of control | [3] 96 % of control | [4] 107 % of control

C=C1SC(=Nc2c(C)cc(C)cc2C)N(C(=O)c2sc3ccccc3c2Cl)C12CCCCC2
inactive: [8] 96 % of control | [9] 103 % of control | [10] 91 % of control

NC(CCl)C(=O)NO (configuration not stated)
inactive: [12] 99 % of control | [13] 96 % of control | [14] 103 % of control

NC(=O)c1cc([N+](=O)[O-])cnc1Sc1ncn[nH]1
inactive: [15] 98 % of control | [16] 107 % of control

COSc1ccc([N+](=O)[O-])cc1[N+](=O)[O-]
inactive: dose: 12.5 mg/kg/injection, schedule: Q01DX009 (ip), vehicle: saline with Tween-80 95 % of control | [17] 96 % of control | [20] 98 % of control | [18] 103 % of control | [12] 102 % of control | [19] 103 % of control | [13] 108 % of control | [14] 111 % of control

CC(C)C(C(O)c1ccccc1)[N+](=O)[O-] (configuration not stated)
inactive: [19] 104 % of control | dose: 200.0 mg/kg/injection, schedule: Q01DX009 (ip), vehicle: saline with Tween-80 95 % of control | dose: 400.0 mg/kg/injection, schedule: Q01DX009 (ip), vehicle: saline with Tween-80 86 % of control

Brc1nn[nH]n1
inactive: [15] 101 % of control | [16] 90 % of control

COC(=O)C1(CC(=O)c2ccccc2)NC(=S)NC(=O)C1C#N (configuration not stated)
inactive: [2] 103 % of control | [3] 98 % of control | [4] 98 % of control

CCCCCCCCOc1ccc(/C=C/C(C)=N/NC(N)=NC)cc1OC
inactive: dose: 7.5 mg/kg/injection, schedule: Q01DX005 (ip), vehicle: saline with Tween-80 111 % of control | dose: 15.0 mg/kg/injection, schedule: Q01DX005 (ip), vehicle: saline with Tween-80 95 % of control | dose: 30.0 mg/kg/injection, schedule: Q01DX005 (ip), vehicle: saline with Tween-80 102 % of control

CCN(CC)CCOc1ccc(C2=C(c3ccccc3)CCc3cc(OC)ccc32)cc1
inactive: dose: 100.0 mg/kg/injection, schedule: Q04DX003 (ip), vehicle: saline with Tween-80 100 % of control | dose: 200.0 mg/kg/injection, schedule: Q04DX003 (ip), vehicle: saline with Tween-80 104 % of control

CCCCCCCCCCCCCCCC[N+](C)(C)CC#N
inactive: [1] 100 % of control | [20] 89 % of control

C[n+]1ccc(CC(Cc2cc[n+](C)cc2)c2ccc(Br)cc2)cc1
inactive: dose: 6.25 mg/kg/injection, schedule: Q01DX009 (ip), vehicle: Klucel (hydroxypropylcellulose) (HPC) 110 % of control | dose: 12.5 mg/kg/injection, schedule: Q01DX009 (ip), vehicle: Klucel (hydroxypropylcellulose) (HPC) 110 % of control | dose: 25.0 mg/kg/injection, schedule: Q01DX009 (ip), vehicle: Klucel (hydroxypropylcellulose) (HPC) 108 % of control

Source: PubChem BioAssay AID330 (DTP/NCI, 2004)
